Data set [1] concerns the target T1, cyclic AMP phosphodiesterase (Oryctolagus cuniculus, UniProt G1ST54).
T1 construct: the supernatant was collected to use it as a crude enzyme solution; from tissue; host or cells: rabbit platelets (from platelet-rich plasma)
T1 sequence (G1ST54 1-1128): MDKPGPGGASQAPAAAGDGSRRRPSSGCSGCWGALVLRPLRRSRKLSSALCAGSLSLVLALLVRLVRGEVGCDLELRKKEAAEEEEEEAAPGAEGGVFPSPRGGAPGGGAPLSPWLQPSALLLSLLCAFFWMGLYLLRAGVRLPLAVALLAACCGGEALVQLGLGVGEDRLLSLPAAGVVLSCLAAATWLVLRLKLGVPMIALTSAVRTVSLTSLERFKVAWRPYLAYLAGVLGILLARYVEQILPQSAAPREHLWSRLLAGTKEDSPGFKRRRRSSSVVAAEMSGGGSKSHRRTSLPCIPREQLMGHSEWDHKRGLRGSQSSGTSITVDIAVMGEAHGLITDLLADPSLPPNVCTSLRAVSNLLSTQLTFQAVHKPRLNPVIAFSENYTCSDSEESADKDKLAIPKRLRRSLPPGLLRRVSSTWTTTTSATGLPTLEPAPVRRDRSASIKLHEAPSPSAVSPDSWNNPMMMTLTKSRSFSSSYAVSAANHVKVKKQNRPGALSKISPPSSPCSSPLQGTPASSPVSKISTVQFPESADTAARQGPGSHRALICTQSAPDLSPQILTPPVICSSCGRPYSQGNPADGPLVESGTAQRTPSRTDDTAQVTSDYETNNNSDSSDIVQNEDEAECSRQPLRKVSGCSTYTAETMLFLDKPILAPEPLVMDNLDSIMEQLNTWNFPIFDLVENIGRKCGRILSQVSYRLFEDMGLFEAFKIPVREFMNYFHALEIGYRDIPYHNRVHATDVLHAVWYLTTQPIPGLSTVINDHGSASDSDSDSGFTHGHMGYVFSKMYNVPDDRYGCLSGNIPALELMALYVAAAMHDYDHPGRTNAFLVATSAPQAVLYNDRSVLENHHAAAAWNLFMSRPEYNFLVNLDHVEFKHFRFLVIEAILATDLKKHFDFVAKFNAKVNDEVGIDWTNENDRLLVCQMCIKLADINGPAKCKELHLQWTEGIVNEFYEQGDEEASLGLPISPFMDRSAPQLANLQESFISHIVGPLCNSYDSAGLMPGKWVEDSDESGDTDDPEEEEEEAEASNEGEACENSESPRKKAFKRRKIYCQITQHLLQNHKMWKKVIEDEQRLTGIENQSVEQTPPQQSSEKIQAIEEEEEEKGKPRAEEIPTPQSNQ
The experiment in a line: Obstructive action against cyclic AMP phosphodiesterase. In kind it is biochemical. The settings on record: rabbit platelet enzyme, 30° C., 20 minutes. How it is done:
That is, for determining the obstructive activity against cyclic AMP phosphodiesterase, 10 ml of a solution obtained by adding 1 mmol of MgCl2 into 50 mmol of tris-hydrochloric acid buffer with pH 7.4 was added to the platelets obtained by further centrifuging the above-said rabbit PRP at 3,000 r.p.m. for 10 minutes, and the suspended platelets were ground by a Teflon potter type homogenizer. This was followed by two times of freezing and thawing treatment and 300-second fracturing with 200 watt supersonic waves. After additional 60-minute centrifugation with 100,000 G, the supernatant was collected to use it as a crude enzyme solution.
10 Milliliters of this crude buffer solution was added to a 1.5×20 cm DEAE-cellulose column which has previously been buffered with 50 mM of tris-acetate buffer (pH 6.0), followed by washing and elution with 30 ml of 50 mM tris-acetate buffer, and this buffer solution was subjected to linear gradient elution with 0 to 0.5 moles of sodium acetate-tris-acetatebuffer (total amount of elute was 300 ml.). The flow rate was 0.5 ml/min, and 5 ml of each fraction was batched out. […] This fraction was used as cyclic AMP phosphodiesterase.
0.1 Milliliter of an aqueous solution of each test compound of a specified concentration was mixed with 40 mmol of tris-hydrochloric acid buffer (pH 8.0, containing 50 μg of cow serum albumin and 4 mmol of MgCl2) containing predetermined 1.0 μmol of cyclic AMP (tritium cyclic AMP), and 0.2 ml of this mixed solution was used as substrate solution.
0.2 Milliliter of the above-prepared cyclic AMP phosphodiesterase of a predetermined concentration was added to said substrate solution and the mixture was reacted at 30° C. for 20 minutes, producing tritium 5'-AMP from the tritium cyclic AMP.
The reaction system was then immersed in boiling water for 2 minutes to stop the reaction, and then this reaction solution was cooled in ice water and, for converting the produced tritium 5'-AMP into tritium adenosine, the solution was added with 0.05 ml (1 mg/ml) of snake poison as 5'-nucleotidase and reacted at 30° C. for 10 minutes. The whole amount of this reaction solution was then added to a cation exchange resin (AG 500 W×4, 200-400 meshes, manufactured by Bio-Rad Co., column size: 0.5×1.5 cm), and the produced tritium anodesine alone was allowed to combine, washed with 6 ml of distilled water and eluted with 1.5 ml of 3 N-ammonia water. The whole quantity of the elutant was added with 10 ml of a triton-toluene type scintillator and the produced tritium adenosine was measured by a liquid scintillation counter to determine the phosphodiesterase activity.
In this way, the phosphodiesterase activation value (Vs) of the test compounds of the respective concentrations was determined, and the phosphodiesterase obstruction rate (%) was determined from said activation value (Vs) and control value (Vc) (obtained from water not containing any test compound) from the following formula: [formula] Known 1-methyl-3-isobutylxanthine was used as control.

Data set [2] concerns collagen-induced aggregation in rabbit platelet. In words: Inhibition effect on collagen-induced aggregation in rabbit platelet. The data set is classed as cell-based. The note with it: Oryctolagus cuniculus, Platelet, read-out: Inhibition effect on collagen-induced aggregation; for inhibition at 10 µM: concentration of the test compound solution 10^-5 mole; for inhibition at 1 µM: concentration of the test compound solution 10^-6 mole. How it is done:
(§1) The platelet aggregation inhibitory effect is measured by using AG-II aggregometer (manufactured by Bryston Manufacturing Co.). The blood sample used for the test is a 1/9 (by volume) mixture of sodium citrate and whole blood collected from rabbit. Said sample is subjected to 10-minute centrifugal separation at 1,000 r.p.m. to obtain a platelet rich plasma (PRP). The thus obtained PRP is separated, and the remaining blood sample is further subjected to 15-minute centrifugal separation at 3,000 r.p.m. to obtain a platelet poor plasma (PPP).
(§2) The number of platelets in the PRP is counted by the Brecher-Clonkite Method, and the PRP is diluted with the PPP to prepare a PRP sample with platelet concentration of 300,000/mm^3 for the adenosine diphosphate (ADP)-induced aggregation test. There is also prepared a PRP sample with platelet concentration of 450,000/mm^3 for the collagen-induced aggregation test.
(§3) 0.6 Milliliter of said PRP sample is added into 0.01 ml of a solution of a test compound of a predetermined concentration and the mixture is placed in a 37° C. thermostat for one minute. Then 0.07 ml of an ADP or collagen solution is added to the mixture. Transmittance of this mixture is determined and the change of transmittance is recorded by using the aggregometer at stirrer speed of 1,100 r.p.m. […] The ADP solution is adjusted to a concentration of 7.5×10^-5 M, and the collagen solution is prepared by triturating 100 mg of collagen with 5 ml of said buffer and the supernatant is used as collagen inducer. Acetylsalicylic acid is used as control for the ADP-induced aggregation test and the collagen-induced aggregation test, respectively. The platelet aggregation inhibitory effect is measured in terms of percent inhibition with respect to the aggregation rate of the controls. The aggregation rate is calculated from the following formula:
(§4) Aggregation rate=[(c-a)/(b-a)]×100
(§5) b: transmittance of PRP containing a test compound and an aggregation inducer

In data set [3] the test system is ADP-induced aggregation in rabbit platelet. The experiment in a line: Inhibition effect on ADP-induced aggregation in rabbit platelet. The data set is classed as cell-based. The settings on record: Oryctolagus cuniculus, Platelet; for inhibition at 100 µM: concentration of the test compound solution 10^-4 mole; for inhibition at 10 µM: concentration of the test compound solution 10^-5 mole; for inhibition at 1 µM: concentration of the test compound solution 10^-6 mole. The protocol: as §1, §2, §3, §4, §5

The next data set is described as follows: Acute Toxicity Test. The settings on record: mouse, in vivo; male mice, oral administration. How it is done: The test compounds were administered orally to the mice and LD50 (mg/kg) of the compounds was determined.
Where [4] appears, read: read-out: Inhibition effect on ADP-induced aggregation.

pIC50: −log10 of the molar value. Some results are limits rather than exact numbers.

What is called pIC50 is the negative decadic logarithm of the IC50, by convention in mol/L. The low end stands for a high IC50, the high end for a low IC50. Regarding `CC(C)Cn1c(=O)n(C)c(=O)c2[nH]cnc21` [1-Methyl-3-isobutylxanthine, 1-methyl-3-isobutylxanthine, reference compound], in data set [1], the pIC50 is 6.27.

`CC(=O)OC1CCC(N(C)C(=O)CCCOc2ccc3[nH]c(=O)ccc3c2)CC1` (stereo not drawn) [No. 26, 6-{3-[N--Methyl-N--(4-acetyloxycyclohexyl)aminocarbonyl]propoxy}carbostyril, reference compound]: the pIC50 in data set [1] is 8.18.

For orientation: inhibition means the percentage by which the read-out fell short of the control. By LD50 is commonly meant the dose at which mortality reaches 50%. Read a low LD50 as a more toxic substance. On to `CN(Cc1ccco1)C(=O)CCCOc1ccc2[nH]c(=O)ccc2c1` [No. 4, 6-{3-[N-Methyl-N-(2-furylmethyl)aminocarbonyl]propoxy}carbostyril], for which the pIC50 in data set [1] was 6.22. In addition, the values for the inhibition at 100 µM in data set [2] (concentration of the test compound solution 10^-4 mole) and in data set [3] were 92.5% and 85.7%, respectively. In addition, the inhibition at 10 µM in data set [2] stood at 35.8%; in data set [3] (setting [4]), 13.7%. The inhibition at 1 µM in data set [2] amounted to 4%. Also, in the data set “Acute Toxicity Test”, the LD50 was > 1000 mg/kg.

With `O=C1CCc2cc(OCCCC(=O)N3CCN(Cc4ccccc4)CC3)ccc2N1` [No. 15, 6-[3-(4-Benzyl-1-piperazinylcarbonyl)propoxy]-3,4-dihydrocarbostyril], in data set [1], the pIC50 was 7.40. The results for the inhibition at 10 µM in data set [2] and in data set [3] (setting [4]) were 98.8% and 100%, respectively. Besides, the inhibition at 1 µM in data set [2] turned out to be 24.6%; in data set [3] (setting [4]), 25.8%. For the same compound, the inhibition at 100 µM in data set [3] is 100%. Besides, the LD50 in the data set “Acute Toxicity Test” is > 1000 mg/kg.

For the compound `CCCCN(CC1CCCCO1)C(=O)CCCCOc1ccc2c(c1)CCC(=O)N2` (stereo not drawn) [No. 12, 6-{4-[N-Butyl-N-(2-tetrahydropyranylmethyl)aminocarbonyl]butoxy}-3,4-dihydrocarbostyril], the pIC50 in data set [1] is 7.60. Also, in data set [2], the inhibition at 10 µM worked out at 100% and the inhibition at 1 µM worked out at 10.3%. The compound further came in with an inhibition at 100 µM in data set [3] of 100%. For the same compound, in data set [3] (setting [4]), the inhibition at 10 µM was 40.2% and the inhibition at 1 µM came out at 8.3%. In addition, in the data set “Acute Toxicity Test”, the LD50 is > 1000 mg/kg.

In turn, `O=C(OCCN(C(=O)CCCOc1ccc2[nH]c(=O)ccc2c1)C1CCCCC1)c1ccccc1` [No. 10, 6-{3-[N-(2-Benzoyloxyethyl)-N-cyclohexylaminocarbonyl]propoxy}carbostyril] had a pIC50 in data set [1] of 7.92. Besides, the inhibition at 10 µM in data set [2] came to 100%; in data set [3] (setting [4]), 80.7%. In addition, the inhibition at 1 µM in data set [2] turned out to be 100%; in data set [3] (setting [4]), 42.6%. In addition, the inhibition at 0.1 µM in data set [2] (concentration of the test compound solution 10^-7 mole) is 56.7%; in data set [3] (concentration of the test compound solution 10^-7 mole, read-out: Inhibition effect on ADP-induced aggregation), 7.1%. This compound also registered an inhibition at 100 µM in data set [3] of 100%. The median lethal dose (LD50) in “Acute Toxicity Test” is > 1000 mg/kg.

As for `CCN(C(=O)CCCOc1ccc2[nH]c(=O)ccc2c1)c1ccccn1` [No. 3, 6-{3-[N-Ethyl-N-(2-pyridyl)aminocarbonyl]propoxy}carbostyril], in data set [1], the pIC50 is 6.40. In data set [2], the inhibition at 10 µM turned out to be 100% and the inhibition at 1 µM amounted to 14%. In addition, in data set [3], the inhibition at 100 µM was 100%. For the same compound, in data set [3] (setting [4]), the inhibition at 10 µM is 31% and the inhibition at 1 µM was 10%. Besides, in “Acute Toxicity Test”, the LD50 was > 1000 mg/kg.

As to `O=C1CCc2cc(OCCCCC(=O)N(CCO)CC3CCCCO3)ccc2N1` (stereo not drawn) [No. 13, 6-{4-[N-(2-Hydroxyethyl)-N-(2-tetrahydropyranylmethyl)aminocarbonyl]butoxy}-3,4-dihydrocarbostyril], in data set [2], the inhibition at 10 µM worked out at 81.7% and the inhibition at 1 µM amounted to 5.2%. Moreover, the inhibition at 100 µM in data set [3] was found to be 100%. Moreover, in data set [3] (setting [4]), the inhibition at 10 µM came to 30.1% and the inhibition at 1 µM is 5.3%. Moreover, the LD50 in the data set “Acute Toxicity Test” was > 1000 mg/kg.

For the compound `O=C1CCc2cc(OCCCCC(=O)N(CCCCO)CC3CCCCC3)ccc2N1` [No. 8, 6-{4-[N-(4-Hydroxybutyl)-N-cyclohexylmethylaminocarbonyl]butoxy}-3,4-dihydrocarbostyril], the inhibition at 10 µM was 100% in data set [2] and 72.1% in data set [3] (setting [4]). Further, the inhibition at 1 µM in data set [2] worked out at 10.2%; in data set [3] (setting [4]), 12.2%. In data set [3], this compound registered an inhibition at 100 µM of 100%. Besides, in the data set “Acute Toxicity Test”, the LD50 was > 1000 mg/kg.

Source of the values: patent US4435404A, “Carbostyril derivatives” (priority 1980, dated 1984).
